Patent publication EP4653437A2 (Innovo Therapeutics Inc., priority 2023, dated 2024)

What was measured:
[1] = target: T1, human 15-PGDH (Homo sapiens, UniProt P15428); assay: Evaluation of 15-PGDH inhibitory activity (fluorescence enzyme assay, NAD+/PGE2); format: biochemical; details: human 15-PGDH enzyme, fluorescence Vmax
T1 construct: purchased R&D System 5660-DH
T1 sequence (P15428 1-266): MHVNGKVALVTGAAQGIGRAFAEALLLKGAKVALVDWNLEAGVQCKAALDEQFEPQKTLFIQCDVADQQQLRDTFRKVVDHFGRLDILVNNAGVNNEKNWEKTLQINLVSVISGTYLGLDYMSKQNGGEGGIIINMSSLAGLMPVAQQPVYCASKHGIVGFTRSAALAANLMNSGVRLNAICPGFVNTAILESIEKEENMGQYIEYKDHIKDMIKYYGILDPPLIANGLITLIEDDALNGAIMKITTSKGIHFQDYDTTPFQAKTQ
Experimental: 15-PGDH inhibition activity of Example compounds was measured as follows. 6.7 ng of human 15-PGDH (R&D System# 5660-DH) enzyme (10 µL) was added to a black 96 well plate, 60 µL of buffer (50 mM Tris-HCl, pH 7.5, 0.01% Tween 20) was added, and 10 µL of 200 µM β-Nicotinamide adenine dinucleotide sodium salt (Sigma, Cat# N0632-5G) was added. 10 µL of (10x) compound solution in DMSO was added and reacted for 10 minutes at room temperature.

[2] = test system: A549 cells; assay: Measurement of PGE2-increasing activity in A549 cells (IL-1β stimulated, PGE2 quantified in supernatant); format: cell-based; details: Homo sapiens, 24 h; concentration of 1 µM of each compound; IL-1β treated A549 cells; read-out: Increased PGE2 production in A549 cells
Procedure, shortened: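 A549 cells grown 24 h in F12K with 10% FBS, then switched to serum-free medium with or without IL-1β and compound (0.1% DMSO final). After 24 h at 37 °C, 5% CO2, supernatant PGE2 quantified by immunoassay.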

SMILES | IC50 [1] | fold induction at 1 µM [2]
O=C(c1cncc(-c2cccc3c(C(=O)N4CCCCC4)cnn23)c1)N1CCC1 [Example 41, azetidin-1-yl(5-(3-(piperidine-1-carbonyl)pyrazolo[1,5-a]pyridin-7-yl)pyridin-3-yl)methanone] | ≤ 100 nM | > 1.5
COc1cccc(Sc2cccc3c(C(=O)N4CCCCC4)cnn23)c1 [Example 194, (7-((3-methoxyphenyl)thio)pyrazolo[1,5-a]pyridin-3-yl)(piperidin-1-yl)methanone] | ≤ 100 nM | < 1.5
CC1CCCN(C(=O)c2cnn3c(-c4ccc(F)nc4)cccc23)C1 (centres unmarked) [Example 336, (7-(6-fluoropyridin-3-yl)pyrazolo[1,5-a]pyridin-3-yl)(3-methylpiperidin-1-yl)methanone] | ≤ 100 nM | > 1.5
CCC1CCCN(C(=O)c2cnn3c(-c4ccc(F)nc4)cccc23)C1 (centres unmarked) [Example 337, (3-ethylpiperidin-1-yl)(7-(6-fluoropyridin-3-yl)pyrazolo[1,5-a]pyridin-3-yl)methanone] | ≤ 100 nM | > 1.5
N#Cc1ccc(-c2cccc3c(C(=O)N4CCCCC4)cnn23)c(F)c1 [Example 285, 3-fluoro-4-[3-(piperidine-1-carbonyl)pyrazolo[1,5-a]pyridin-7-yl]benzonitrile] | ≤ 100 nM | > 1.5
O=C(c1cnn2c(-c3ccccc3)cccc12)N1CC2CCC1CC2 [Example 228, (2-azabicyclo[2.2.2]octan-2-yl)(7-phenylpyrazolo[1,5-a]pyridin-3-yl)methanone] | ≤ 100 nM | < 1.5
Cc1nnc(-c2ccc(-c3cccc4c(C(=O)N5CCCCC5)cnn34)cc2)o1 [Example 348, [7-[4-(5-methyl-1,3,4-oxadiazol-2-yl)phenyl]pyrazolo[1,5-a]pyridin-3-yl]-(1-piperidyl)methanone] | ≤ 100 nM | > 1.5
O=C(c1cnn2c(-c3ccc(F)nc3F)cccc12)N1CCCCC1 [Example 266, (7-(2,6-difluoropyridin-3-yl)pyrazolo[1,5-a]pyridin-3-yl)(piperidin-1-yl)methanone] | ≤ 100 nM | > 1.5
O=C(c1cnn2c(-c3ccc4c(=O)[nH]ccc4c3)cccc12)N1CCCCC1 [Example 138, 6-(3-(piperidine-1-carbonyl)pyrazolo[1,5-a]pyridin-7-yl)isoquinolin-1(2H)-one] | ≤ 100 nM | > 1.5
Cn1nccc1-c1ccc(-c2cccc3c(C(=O)N4CCCCC4)cnn23)cc1 [Example 300, [7-[4-(2-methylpyrazol-3-yl)phenyl]pyrazolo[1,5-a]pyridin-3-yl]-(1-piperidyl)methanone] | ≤ 100 nM | < 1.5
O=C(c1cnn2c(-c3cc(-c4cncc(F)c4)nc(N4CCOC4=O)c3)cccc12)N1CCCCC1 [Example 370, 3-(5'-fluoro-4-(3-(piperidine-1-carbonyl)pyrazolo[1,5-a]pyridin-7-yl)-[2,3'-bipyridin]-6-yl)oxazolidin-2-one] | ≤ 100 nM | > 1.5
O=C(Cc1cccnc1)Nc1ncc(-c2cccc3c(C(=O)N4CCCCC4)cnn23)cc1F [Example 362, N-(3-fluoro-5-(3-(piperidine-1-carbonyl)pyrazolo[1,5-a]pyridin-7-yl)pyridin-2-yl)-2-(pyridin-3-yl)acetamide] | ≤ 100 nM | > 1.5
CC(C)Nc1ccc(-c2cccc3c(C(=O)N4CCCCC4)cnn23)cn1 [Example 109, (7-(6-(isopropylamino)pyridin-3-yl)pyrazolo[1,5-a]pyridin-3-yl)(piperidin-1-yl)methanone] | ≤ 100 nM | > 1.5
CN(C)CCNC(=O)c1ccc(-c2cccc3c(C(=O)N4CCCCC4)cnn23)cn1 [Example 79, N-(2-(dimethylamino)ethyl)-5-(3-(piperidine-1-carbonyl)pyrazolo[1,5-a]pyridin-7-yl)picolinamide] | ≤ 100 nM | > 1.5
O=C(c1cnn2c(-c3cnc(-c4noc(=O)[nH]4)c(F)c3)cccc12)N1CCCCC1 [Example 247, 3-[3-fluoro-5-[3-(piperidine-1-carbonyl)pyrazolo[1,5-a]pyridin-7-yl]-2-pyridyl]-4H-1,2,4-oxadiazol-5-one] | ≤ 100 nM | > 1.5
C[C@@H]1CCCN(C(=O)c2cnn3c(-c4ccc5c(c4)C(=O)NC5)cccc23)C1 [Example 385, (R)-6-(3-(3-methylpiperidine-1-carbonyl)pyrazolo[1,5-a]pyridin-7-yl)isoindolin-1-one] | ≤ 100 nM | > 1.5
O=C(c1cnn2c(-c3ccc(N4CC(CO)C4)nc3)cccc12)N1CCCCC1 [Example 221, (7-(6-(3-(hydroxymethyl)azetidin-1-yl)pyridin-3-yl)pyrazolo[1,5-a]pyridin-3-yl)(piperidin-1-yl)methanone] | ≤ 100 nM | > 1.5
O=C(NC1CNC1)c1cncc(-c2cccc3c(C(=O)N4CCCCC4)cnn23)c1 [Example 200, N-(azetidin-3-yl)-5-(3-(piperidine-1-carbonyl)pyrazolo[1,5-a]pyridin-7-yl)nicotinamide] | ≤ 100 nM | > 1.5
Cc1noc(C)c1-c1cc(-c2cccc3c(C(=O)N4CCCCC4)cnn23)cc(N2CCOC2=O)n1 [Example 368, 3-(6-(3,5-dimethylisoxazol-4-yl)-4-(3-(piperidine-1-carbonyl)pyrazolo[1,5-a]pyridin-7-yl)pyridin-2-yl)oxazolidin-2-one] | ≤ 100 nM | > 1.5
O=C(c1cnn2c(-c3cnn(Cc4ncon4)c3)cccc12)N1CCCCC1 [Example 395, (7-(1-((1,2,4-oxadiazol-3-yl)methyl)-1H-pyrazol-4-yl)pyrazolo[1,5-a]pyridin-3-yl)(piperidin-1-yl)methanone] | ≤ 100 nM | > 1.5
N#CCCNC(=O)c1ccc(-c2cccc3c(C(=O)N4CCCCC4)cnn23)o1 [Example 90, N-(2-cyanoethyl)-5-(3-(piperidine-1-carbonyl)pyrazolo[1,5-a]pyridin-7-yl)furan-2-carboxamide] | ≤ 100 nM | > 1.5

More lines, main results first:

IC50 [1] | SMILES | fold induction at 1 µM [2]
≤ 100 nM | O=C(Nc1cncc(-c2cccc3c(C(=O)N4CCCCC4)cnn23)c1)c1cncc(F)c1 [Example 335, 5-fluoro-N-(5-(3-(piperidine-1-carbonyl)pyrazolo[1,5-a]pyridin-7-yl)pyridin-3-yl)nicotinamide] | > 1.5
≤ 100 nM | CN1CC(NC(=O)c2cncc(-c3cccc4c(C(=O)N5CCCCC5)cnn34)c2)C1 [Example 202, N-(1-methylazetidin-3-yl)-5-[3-(piperidine-1-carbonyl)pyrazolo[1,5-a]pyridin-7-yl]pyridine-3-carboxamide] | > 1.5
≤ 100 nM | O=C(c1cccc(-c2cccc3c(C(=O)N4CCCCC4)cnn23)c1)N1CCNCC1 [Example 34, piperazin-1-yl(3-(3-(piperidine-1-carbonyl)pyrazolo[1,5-a]pyridin-7-yl)phenyl)methanone] | > 1.5
≤ 100 nM | O=C(O)c1ccc(-c2cccc3c(C(=O)N4CCCCC4)cnn23)cc1 [Example 10, 4-(3-(piperidine-1-carbonyl)pyrazolo[1,5-a]pyridin-7-yl)benzoic acid] | < 1.5
≤ 100 nM | C[C@H]1CCCN(C(=O)c2cnn3c(-c4ccc5c(c4)C(=O)NC5)cccc23)C1 [Example 386, (S)-6-(3-(3-methylpiperidine-1-carbonyl)pyrazolo[1,5-a]pyridin-7-yl)isoindolin-1-one] | > 1.5
≤ 100 nM | O=C(Nc1cccc(-c2cccc3c(C(=O)N4CCCCC4)cnn23)c1)C1CC1 [Example 94, N-(3-(3-(piperidine-1-carbonyl)pyrazolo[1,5-a]pyridin-7-yl)phenyl)cyclopropanecarboxamide] | > 1.5
≤ 100 nM | O=C(c1cnn2c(-c3cccc(-c4nnn[nH]4)c3)cccc12)N1CCCCC1 [Example 113, (7-(3-(1H-tetrazol-5-yl)phenyl)pyrazolo[1,5-a]pyridin-3-yl)(piperidin-1-yl)methanone] | > 1.5
≤ 100 nM | Cc1noc(C)c1-c1ncc(-c2cccc3c(C(=O)N4CCCCC4)cnn23)cc1F [Example 381, [7-[6-(3,5-dimethylisoxazol-4-yl)-5-fluoro-3-pyridyl]pyrazolo[1,5-a]pyridin-3-yl]-(1-piperidyl)methanone] | > 1.5
≤ 100 nM | N#CCCNC(=O)c1ccc(-c2cccc3c(C(=O)N4CCCCC4)cnn23)cc1 [Example 69, N-(2-cyanoethyl)-4-(3-(piperidine-1-carbonyl)pyrazolo[1,5-a]pyridin-7-yl)benzamide] | > 1.5
≤ 100 nM | Nc1cnn(-c2ccc(-c3cccc4c(C(=O)N5CCCCC5)cnn34)cn2)c1 [Example 344, (7-(6-(4-amino-1H-pyrazol-1-yl)pyridin-3-yl)pyrazolo[1,5-a]pyridin-3-yl)(piperidin-1-yl)methanone] | > 1.5
